We go through one compound from patent US6506417B1, “Composition and process for reducing bacterial citrus canker organisms” (FMC Technologies, Inc., priority 2001, dated 2003).

Each structure is given as a SMILES string.

The subject of assay [1] is Xanthomonas campestris pv. vesicatoria. The note with it: 200 μg/ml; cited from earlier work.
The subject of assay [2] is X. axonopodis pv. citrumelo. Kind of assay: Dose-response study, 1 minute exposure to peracetic acid dilutions. Format: cell-based. The method, then:
Four strains of X. axonopodis pv. citrumelo were obtained from the Florida Department of Citrus and propagated in Nutrient Broth (Difco) at 22° C. with agitation for 48 to 72 hours. Cells were pelleted at 5,000 rpm/16 minutes, washed with Butterfield's Phosphate (pH 7.2) and resuspended in approximately 10% of the initial culture volume with Butterfield's Phosphate in order to concentrate the cells 10×. This final concentrate was used as the inoculum for the dose-response study. FMC VigorOx Liquid Sanitizer and Disinfectant (5% peracetic acid) and VigorOx SP-15 Antimicrobial Agent (15% peracetic acid) were diluted to final peracetic acid concentrations of 0 ppm (control), 5 ppm, 10 ppm, 20 ppm, 30 ppm, 40 ppm, 50 ppm, 60 ppm, 70 ppm, and 80 ppm with distilled water. Each variable was dispensed in 9.9 ml aliquots in sterile test tubes.
A 0.1 ml aliquot of the inoculum was added to each peracetic acid variable, shaken, and allowed to remain exposed to the solution for 1 minute. […]
Data summaries of trials performed on each product are expressed in the following tables. […] The initial inoculum was determined to contain 2.9×10^11 cfu/ml X. axonopodis, and the initial level of X. axonopodis exposed to each concentration of peracetic acid was determined to be 2.9×10^9 cfu/ml.

With `CC(=O)OO` [peroxyacetic acid], the level of eradication result in assay [1] is reported as “acceptable level of eradication comparable to approved chlorine treatments”. In addition, the “reduction of X. axonopodis” value in assay [2] (30 parts per million peroxyacetic acid, and above) was above 99.9%. In assay [2] (greater than 10 but less than 20 parts per million peroxyacetic acid), the “significant reduction of X. axonopodis” value was above 1 log10 cfu/ml.
